Test results as given in PMC8121805, “Discovery of first-in-class inhibitors of ASH1L histone methyltransferase with anti-leukemic activity” (Nature Communications, 2021).
Several values for one entry are separate records, joined by “and”; a condition that tells them apart may be missing. Identical values can stand only once. Values belong to the compound of their own block, whether it stands above or below them.

Assays:
[1] = target: ASH1L (amino acids 2046–2330) (Homo sapiens, UniProt Q9NR48); experiment: Histone methyltransferase (HMT) assay; settings: for IC50: IC50, HMT assay with nucleosomes as substrate, mean ± s.d. from two independent experiments
Procedure: The mixtures of ASH1L and compounds were incubated at room temperature for 1 h. […] The reaction was continued for 1 h at room temperature, then quenched by addition of 10% Trichloroacetic acid (TCA) and then transferred to 96-well filter plates (Millipore sigma, MSFBN6B), washed twice with 10% TCA and then once with 200-proof ethanol. After extensive drying, 70 µL of Microscint-O scintillant (PerkinElmer) was added and counts per minute (CPM) were measured using a MicroBeta microplate counter (PerkinElmer). Titration curves were plotted using Prism (GraphPad Prism 8.0.0.) and IC50 values were calculated.

[2] = target: ASH1L SET domain (2069–2288) (Homo sapiens, UniProt Q9NR48); experiment: Isothermal titration calorimetry (ITC); settings: for kcal/mole of injectant: ITC isotherm
Procedure: All samples were extensively degassed by vacuum aspiration for 20 min prior to measurements. […] All titration data were analyzed with a single-site fitting model using Origin 7.0.

MOLM13 cells = experiment: MTT cell viability assay; assay type: cell-based, human; settings: MTT, 7 days
Procedure: (§1) FBS and 1% penicillin/streptomycin. […] Media was changed on day 3 or 4 and compounds were resupplied. […] Cell suspensions (100 μL) were transferred to the 96-well plates for each sample in quadruplicate at the time of media change. At day 7, 10 µL of MTT reagent (M6494, Molecular Probes™) was added to each well of the 96 well plate and incubated at 37 °C for 4 h. The formazan was then solubilized by adding 100 µL acidified 10% SDS solution and incubated at 37 °C overnight. Plates were read for absorbance at 570 nm using a PHERAstar BMG microplate reader. The experiments were performed two times in quadruplicates with calculation of mean and SD for each condition. Data were analyzed in Prism 8.0.0 to obtain GI50 values.
(§2) Supplementary Figure 7. […] (a)
(§3) Titration curves from the MTT cell viability assay performed after 4, 7, and 11 (or 10) days of
(§4) Titration curves from the MTT cell viability assay performed after 7 days of treatment of KOPN8 ,
(§5) MOLM13 and MV4;11 cell lines harboring MLL1 translocation (MLL1-r) or K562 cell line (non-
(§6) Representative graphs are shown
(§7) from two independent MTT experiments performed for each cell line.

MV4;11 cells = experiment: MTT cell viability assay; assay type: cell-based, human; settings: MTT, 7 days
Procedure: as §1, §2, §3, §4, §5, §6, §7

[3] = system: MLL leukemia cells (MV4;11, MOLM13, KOPN8, RS4;11); experiment: MTT cell viability assay, MLL leukemia cells as a group; assay type: cell-based, human; settings: Homo sapiens, MLL leukemia cells
Procedure: Human leukemia cells K562, MV4;11 and RS4;11 (purchased from ATCC) and KOPN8, MOLM13 (purchased from DSMZ) were cultured in RPMI 1640 (Invitrogen) supplemented with 10% heat inactivated (h.i.) FBS and 1% penicillin/streptomycin (Invitrogen). SET2 cells (purchased from DSMZ) were cultured in RPMI 1640 supplemented with 20% h.i. FBS and 1% penicillin/streptomycin. Cells were plated at 1 × 10^5 to 2 × 10^5 cells/mL depending on cell line and treated with 0.25% DMSO or varying concentrations of compounds and incubated at 37 °C, 5% CO2 incubator for 7 days. Media was changed on day 3 or 4 and compounds were resupplied. […] Cell suspensions (100 μL) were transferred to the 96-well plates for each sample in quadruplicate at the time of media change. At day 7, 10 µL of MTT reagent (M6494, Molecular Probes™) was added to each well of the 96 well plate and incubated at 37 °C for 4 h. The formazan was then solubilized by adding 100 µL acidified 10% SDS solution and incubated at 37 °C overnight. Plates were read for absorbance at 570 nm using a PHERAstar BMG microplate reader. The experiments were performed two times in quadruplicates with calculation of mean and SD for each condition. Data were analyzed in Prism 8.0.0 to obtain GI50 values.
Supplementary Figure 4. Cell viability assay for AS-6 in MLL leukemia cell lines. Titration curves from the MTT cell viability assay performed after 7 days of treatment of human MLL1- […]
replicates. Representative graphs are shown from two independent MTT experiments performed […]
as §2
Titration curves from the MTT cell viability assay performed after 4, 7, and 11 (or 10) days of […]
Titration curves from the MTT cell viability assay performed after 7 days of treatment of KOPN8 , MOLM13 and MV4;11 cell lines harboring MLL1 translocation (MLL1-r) or K562 cell line (non- […]
Representative graphs are shown from two independent MTT experiments performed for each cell line. GI50 values correspond to […]

[4] = Log[compound] (M) -5.30642 (4: -5.30643)

IC50 [1]: 23 µM and 23.5 µM
% activity ([1]; Log[compound] (M) -3.39794): 6.033% and 2.5275%
% activity ([1]; Log[compound] (M) -3.87506): 27.0096% and 20.8578%
% activity ([1]; Log[compound] (M) -4.35218): 40.1717% and 36.6844%
% activity ([1]; Log[compound] (M) -4.8293): 67.3184% and 49.0775%
% activity [1, 4]: 79.0319% and 80.9812%
% activity ([1]; Log[compound] (M) -5.78355): 102.423% and 86.0958%
% activity ([1]; Log[compound] (M) -6.26067): 109.022% and 106.93%
% activity ([1]; Log[compound] (M) -6.73779): 106.089% and 90.3699%
Compound: NCc1ccc2c(-c3cccc(C(N)=S)c3)c[nH]c2c1 [compound 4]

Kd [2]: 6.2 µM
N (stoichiometry of binding) ([2]; ITC): 1.1
kcal/mole of injectant ([2]; ASH1L-AS-5 molar ratio 0.12083): -11648.3 kcal/mol
kcal/mole of injectant ([2]; ASH1L-AS-5 molar ratio 0.18186): -13231.7 kcal/mol
kcal/mole of injectant ([2]; ASH1L-AS-5 molar ratio 0.2433): -11678.6 kcal/mol
kcal/mole of injectant ([2]; ASH1L-AS-5 molar ratio 0.30515): -11475.1 kcal/mol
kcal/mole of injectant ([2]; ASH1L-AS-5 molar ratio 0.36741): -11317.2 kcal/mol
kcal/mole of injectant ([2]; ASH1L-AS-5 molar ratio 0.43008): -10998.9 kcal/mol
kcal/mole of injectant ([2]; ASH1L-AS-5 molar ratio 0.49316): -10679.7 kcal/mol
kcal/mole of injectant ([2]; ASH1L-AS-5 molar ratio 0.55666): -10389.6 kcal/mol
kcal/mole of injectant ([2]; ASH1L-AS-5 molar ratio 0.62056): -10042.7 kcal/mol
kcal/mole of injectant ([2]; ASH1L-AS-5 molar ratio 0.68487): -9579.7 kcal/mol
kcal/mole of injectant ([2]; ASH1L-AS-5 molar ratio 0.7496): -9123.74 kcal/mol
kcal/mole of injectant ([2]; ASH1L-AS-5 molar ratio 0.81473): -8548.86 kcal/mol
kcal/mole of injectant ([2]; ASH1L-AS-5 molar ratio 0.88027): -7938.47 kcal/mol
kcal/mole of injectant ([2]; ASH1L-AS-5 molar ratio 0.94623): -7340.59 kcal/mol
kcal/mole of injectant ([2]; ASH1L-AS-5 molar ratio 1.0126): -6928.78 kcal/mol
kcal/mole of injectant ([2]; ASH1L-AS-5 molar ratio 1.07937): -5852.59 kcal/mol
kcal/mole of injectant ([2]; ASH1L-AS-5 molar ratio 1.14656): -5058.91 kcal/mol
kcal/mole of injectant ([2]; ASH1L-AS-5 molar ratio 1.21416): -4429.92 kcal/mol
kcal/mole of injectant ([2]; ASH1L-AS-5 molar ratio 1.28216): -3902.54 kcal/mol
kcal/mole of injectant ([2]; ASH1L-AS-5 molar ratio 1.35058): -3390.49 kcal/mol
kcal/mole of injectant ([2]; ASH1L-AS-5 molar ratio 1.41941): -2944.08 kcal/mol
kcal/mole of injectant ([2]; ASH1L-AS-5 molar ratio 1.48865): -2536.04 kcal/mol
kcal/mole of injectant ([2]; ASH1L-AS-5 molar ratio 1.5583): -2250.86 kcal/mol
kcal/mole of injectant ([2]; ASH1L-AS-5 molar ratio 1.62836): -1941.24 kcal/mol
kcal/mole of injectant ([2]; ASH1L-AS-5 molar ratio 1.69883): -1790.53 kcal/mol
kcal/mole of injectant ([2]; ASH1L-AS-5 molar ratio 1.76971): -1545.36 kcal/mol
kcal/mole of injectant ([2]; ASH1L-AS-5 molar ratio 1.841): -1413.63 kcal/mol
kcal/mole of injectant ([2]; ASH1L-AS-5 molar ratio 1.9127): -1226.06 kcal/mol
improvement of the activity versus the original fragment hit [1]: over 200 fold
IC50 [1]: 4 µM
% activity ([1]; Log[compound] (M) -3.69897): 2.662% and 1.923%
% activity ([1]; Log[compound] (M) -4.17609): 6.814% and 8.134%
% activity ([1]; Log[compound] (M) -4.65321): 17.9312% and 20.7044%
% activity ([1]; Log[compound] (M) -5.13033): 34.0137% and 31.5644%
% activity ([1]; Log[compound] (M) -5.60746): 45.8867% and 60.6988%
% activity ([1]; Log[compound] (M) -6.08458): 80.7749% and 70.6538%
% activity ([1]; Log[compound] (M) -6.5617): 92.8804% and 81.5471%
% activity ([1]; Log[compound] (M) -7.03882): 105.285% and 87.6496%
Compound: NCc1ccc2c(-c3cccc(C(N)=S)c3)cn(CCO)c2c1 [AS-5]

IC50 [1]: 50 µM and 50.5 µM
% activity ([1]; Log[compound] (M) -2.92082): -0.3683% and -0.3506%
% activity ([1]; Log[compound] (M) -3.39794): 16.0357% and 15.8766%
% activity ([1]; Log[compound] (M) -3.87506): 38.4321% and 41.7641%
% activity ([1]; Log[compound] (M) -4.35218): 49.8512% and 57.5848%
% activity ([1]; Log[compound] (M) -4.8293): 59.6441% and 71.2665%
% activity [1, 4]: 79.3978% and 82.615%
% activity ([1]; Log[compound] (M) -5.78355): 85.6112% and 97.322%
% activity ([1]; Log[compound] (M) -6.26067): 88.298% and 98.5328%
Compound: NC(=S)c1cccc(-c2c[nH]c3ccccc23)c1 [compound 2]

IC50 [1]: 15 µM
% activity ([1]; Log[compound] (M) -3.69897): 9.186% and 9.699%
% activity ([1]; Log[compound] (M) -4.17609): 18.9348% and 13.291%
% activity ([1]; Log[compound] (M) -4.65321): 40.9235% and 30.2223%
% activity ([1]; Log[compound] (M) -5.13033): 68.7027% and 45.0281%
% activity ([1]; Log[compound] (M) -5.60746): 106.01% and 80.1368%
% activity ([1]; Log[compound] (M) -6.08458): 97.0728% and 88.0528%
% activity ([1]; Log[compound] (M) -6.5617): 107.183% and 116.125%
Compound: NC(=S)c1cccc(-c2cn(CCO)c3ccccc23)c1 [compound 3]

Compound: CS(=O)(=O)N1CCC(n2cc(-c3cccc(C(N)=S)c3)c3ccc(CNC(=O)Cc4c[nH]cn4)cc32)CC1 [AS-6]
% activity MOLM13 (MOLM13 cells; log[compound] -4.30103): 44.6695% and 48.1072% and 45.3243%
% activity MOLM13 (MOLM13 cells; log[compound] -4.60206): 58.0929% and 58.2566% and 58.584% and 59.3207%
% activity MOLM13 (MOLM13 cells; log[compound] -4.90309): 66.769% and 64.8864% and 66.8508%
% activity MOLM13 (MOLM13 cells; log[compound] -5.20412): 75.8543% and 77.8187% and 79.7831% and 79.8649%
% activity MOLM13 (MOLM13 cells; log[compound] -5.50515): 91.8969% and 80.7653% and 85.3489% and 88.2955%
% activity MOLM13 (MOLM13 cells; log[compound] -5.80618): 93.7794% and 90.9965% and 88.7047% and 81.3382%
% activity MOLM13 (MOLM13 cells; log[compound] -6.10721): 102.456% and 101.555% and 98.1993% and 97.7901%
% activity MV4;11 (MV4;11 cells; log[compound] -4.30103): 54.5576% and 57.6227% and 55.8763% and 56.7674%
% activity MV4;11 (MV4;11 cells; log[compound] -4.60206): 56.8386% and 61.0443% and 58.6207% and 61.2225%
% activity MV4;11 (MV4;11 cells; log[compound] -4.90309): 61.2938% and 67.4597% and 60.9374%
% activity MV4;11 (MV4;11 cells; log[compound] -5.20412): 76.1205% and 82.5002% and 82.4289% and 79.6846%
% activity MV4;11 (MV4;11 cells; log[compound] -5.50515): 94.9746% and 100.606% and 92.9787% and 93.7272%
% activity MV4;11 (MV4;11 cells; log[compound] -5.80618): 95.5805% and 97.9685% and 95.0102% and 103.208%
% activity MV4;11 (MV4;11 cells; log[compound] -6.10721): 95.9013% and 98.3962% and 101.354% and 104.348%
GI50 [3]: ~50 µM
